In article PMC12090182, “Repurposing of the RIPK1-Selective Benzo[1,4]oxazepin-4-one Scaffold for the Development of a Type III LIMK1/2 Inhibitor” (ACS Chemical Biology, 2025):
Read-outs that look alike come from different tables or passages of the source.

Tested on: HEK293T cells
Assay type: cell-based
Settings: HEK293T
In short: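 HEK293T and U2OS cells (DMEM) and MRC-9 fibroblasts (EMEM) exposed to compounds at 1 and 10 μM. Live-cell confocal imaging of cell shape and fluorescence before and at 12, 24 and 48 h. Normalized to 0.1% DMSO; biological duplicates with SEM.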

[1] = 1 µM, 0 h after treatment, biological replicate 1
[2] = 1 µM, 0 h after treatment, biological replicate 2
[3] = 1 µM, 12 h after treatment, biological replicate 1
[4] = 1 µM, 12 h after treatment, biological replicate 2
[5] = 1 µM, 24 h after treatment, biological replicate 1
[6] = 1 µM, 24 h after treatment, biological replicate 2
[7] = 1 µM, 48 h after treatment, biological replicate 1
[8] = 1 µM, 48 h after treatment, biological replicate 2
[9] = 10 µM, 0 h after treatment, biological replicate 1
[10] = 10 µM, 0 h after treatment, biological replicate 2
[11] = 10 µM, 12 h after treatment, biological replicate 1
[12] = 10 µM, 12 h after treatment, biological replicate 2
[13] = 10 µM, 24 h after treatment, biological replicate 1
[14] = 10 µM, 24 h after treatment, biological replicate 2
[15] = 10 µM, 48 h after treatment, biological replicate 1
[16] = 10 µM, 48 h after treatment, biological replicate 2

CC(C)C(=O)Nc1ncc(C(=O)NCCN(Cc2ccccc2)C(=O)c2ccc(S(=O)(=O)Nc3ccccc3)cc2)s1 [TH470]
Cell count normalized to cells treated with DMSO control [1]: 0.821 | Cell count per well [1]: 245 | Population Fragmented Nuclei (%) [1]: 8.67% | Population Healthy Nuclei (%) [1]: 36.73% | Population Pyknosed Nuclei (%) [1]: 54.59% | Population apoptotic cell (%) [1]: 45.79% | Population cell that influence microtubule strucutre (%) [1]: 23.61% | Population with increased mitochondrial mass (%) [1]: 62.50% | Population with membrane disruption (%) [1]: 0.00% | Cell count normalized to cells treated with DMSO control [2]: 1.084 | Cell count per well [2]: 248 | Population Fragmented Nuclei (%) [2]: 6.57% | Population Healthy Nuclei (%) [2]: 60.56% | Population Pyknosed Nuclei (%) [2]: 32.86% | Population apoptotic cell (%) [2]: 65.71% | Population cell that influence microtubule strucutre (%) [2]: 23.26% | Population with increased mitochondrial mass (%) [2]: 77.52% | Population with membrane disruption (%) [2]: 0.00% | Cell count normalized to cells treated with DMSO control [3]: 0.762 | Cell count per well [3]: 347 | Population Fragmented Nuclei (%) [3]: 6.25% | Population Healthy Nuclei (%) [3]: 79.38% | Population Pyknosed Nuclei (%) [3]: 14.38% | Population apoptotic cell (%) [3]: 34.78% | Population cell that influence microtubule strucutre (%) [3]: 27.17% | Population with increased mitochondrial mass (%) [3]: 44.49% | Population with membrane disruption (%) [3]: 0.79% | Cell count normalized to cells treated with DMSO control [4]: 1.119 | Cell count per well [4]: 392 | Population Fragmented Nuclei (%) [4]: 8.45% | Population Healthy Nuclei (%) [4]: 80.85% | Population Pyknosed Nuclei (%) [4]: 10.70% | Population apoptotic cell (%) [4]: 44.74% | Population cell that influence microtubule strucutre (%) [4]: 20.91% | Population with increased mitochondrial mass (%) [4]: 53.66% | Population with membrane disruption (%) [4]: 0.70% | Cell count normalized to cells treated with DMSO control [5]: 0.7629 | Cell count per well [5]: 463 | Population Fragmented Nuclei (%) [5]: 9.77% | Population Healthy Nuclei (%) [5]: 77.91% | Population Pyknosed Nuclei (%) [5]: 12.33% | Population apoptotic cell (%) [5]: 49.06% | Population cell that influence microtubule strucutre (%) [5]: 18.21% | Population with increased mitochondrial mass (%) [5]: 28.66% | Population with membrane disruption (%) [5]: 1.49% | Cell count normalized to cells treated with DMSO control [6]: 1.065 | Cell count per well [6]: 481 | Population Fragmented Nuclei (%) [6]: 9.19% | Population Healthy Nuclei (%) [6]: 81.84% | Population Pyknosed Nuclei (%) [6]: 8.97% | Population apoptotic cell (%) [6]: 42.50% | Population cell that influence microtubule strucutre (%) [6]: 14.25% | Population with increased mitochondrial mass (%) [6]: 34.25% | Population with membrane disruption (%) [6]: 0.55% | Cell count normalized to cells treated with DMSO control [7]: 0.791 | Cell count per well [7]: 800 | Population Fragmented Nuclei (%) [7]: 15.22% | Population Healthy Nuclei (%) [7]: 78.13% | Population Pyknosed Nuclei (%) [7]: 6.65% | Population apoptotic cell (%) [7]: 21.15% | Population cell that influence microtubule strucutre (%) [7]: 12.27% | Population with increased mitochondrial mass (%) [7]: 18.82% | Population with membrane disruption (%) [7]: 1.47% | Cell count normalized to cells treated with DMSO control [8]: 1.233 | Cell count per well [8]: 842 | Population Fragmented Nuclei (%) [8]: 13.32% | Population Healthy Nuclei (%) [8]: 80.63% | Population Pyknosed Nuclei (%) [8]: 6.05% | Population apoptotic cell (%) [8]: 22.00% | Population cell that influence microtubule strucutre (%) [8]: 11.71% | Population with increased mitochondrial mass (%) [8]: 13.96% | Population with membrane disruption (%) [8]: 2.70% | Cell count normalized to cells treated with DMSO control [9]: 0.9315 | Cell count per well [9]: 278 | Population Fragmented Nuclei (%) [9]: 7.95% | Population Healthy Nuclei (%) [9]: 44.77% | Population Pyknosed Nuclei (%) [9]: 47.28% | Population apoptotic cell (%) [9]: 36.28% | Population cell that influence microtubule strucutre (%) [9]: 15.89% | Population with increased mitochondrial mass (%) [9]: 64.49% | Population with membrane disruption (%) [9]: 0.00% | Cell count normalized to cells treated with DMSO control [10]: 0.9485 | Cell count per well [10]: 217 | Population Fragmented Nuclei (%) [10]: 6.86% | Population Healthy Nuclei (%) [10]: 61.76% | Population Pyknosed Nuclei (%) [10]: 31.37% | Population apoptotic cell (%) [10]: 54.69% | Population cell that influence microtubule strucutre (%) [10]: 26.19% | Population with increased mitochondrial mass (%) [10]: 83.33% | Population with membrane disruption (%) [10]: 0.00% | Cell count normalized to cells treated with DMSO control [11]: 0.7906 | Cell count per well [11]: 360 | Population Fragmented Nuclei (%) [11]: 7.79% | Population Healthy Nuclei (%) [11]: 76.01% | Population Pyknosed Nuclei (%) [11]: 16.20% | Population apoptotic cell (%) [11]: 50.00% | Population cell that influence microtubule strucutre (%) [11]: 67.21% | Population with increased mitochondrial mass (%) [11]: 73.77% | Population with membrane disruption (%) [11]: 0.00% | Cell count normalized to cells treated with DMSO control [12]: 0.8648 | Cell count per well [12]: 303 | Population Fragmented Nuclei (%) [12]: 4.80% | Population Healthy Nuclei (%) [12]: 76.38% | Population Pyknosed Nuclei (%) [12]: 18.82% | Population apoptotic cell (%) [12]: 66.67% | Population cell that influence microtubule strucutre (%) [12]: 63.77% | Population with increased mitochondrial mass (%) [12]: 85.02% | Population with membrane disruption (%) [12]: 0.97% | Cell count normalized to cells treated with DMSO control [13]: 0.6459 | Cell count per well [13]: 392 | Population Fragmented Nuclei (%) [13]: 10.66% | Population Healthy Nuclei (%) [13]: 68.30% | Population Pyknosed Nuclei (%) [13]: 21.04% | Population apoptotic cell (%) [13]: 42.47% | Population cell that influence microtubule strucutre (%) [13]: 67.93% | Population with increased mitochondrial mass (%) [13]: 75.53% | Population with membrane disruption (%) [13]: 0.00% | Cell count normalized to cells treated with DMSO control [14]: 0.6866 | Cell count per well [14]: 310 | Population Fragmented Nuclei (%) [14]: 8.92% | Population Healthy Nuclei (%) [14]: 72.12% | Population Pyknosed Nuclei (%) [14]: 18.96% | Population apoptotic cell (%) [14]: 45.10% | Population cell that influence microtubule strucutre (%) [14]: 52.06% | Population with increased mitochondrial mass (%) [14]: 79.38% | Population with membrane disruption (%) [14]: 1.55% | Cell count normalized to cells treated with DMSO control [15]: 0.5428 | Cell count per well [15]: 549 | Population Fragmented Nuclei (%) [15]: 15.79% | Population Healthy Nuclei (%) [15]: 71.54% | Population Pyknosed Nuclei (%) [15]: 12.67% | Population apoptotic cell (%) [15]: 44.62% | Population cell that influence microtubule strucutre (%) [15]: 57.49% | Population with increased mitochondrial mass (%) [15]: 61.58% | Population with membrane disruption (%) [15]: 2.45% | Cell count normalized to cells treated with DMSO control [16]: 0.5405 | Cell count per well [16]: 369 | Population Fragmented Nuclei (%) [16]: 12.20% | Population Healthy Nuclei (%) [16]: 75.00% | Population Pyknosed Nuclei (%) [16]: 12.80% | Population apoptotic cell (%) [16]: 55.81% | Population cell that influence microtubule strucutre (%) [16]: 64.68% | Population with increased mitochondrial mass (%) [16]: 73.81% | Population with membrane disruption (%) [16]: 1.19%
